Key:
immobilized IL-2 = biological target: T1, immobilized IL-2 (Homo sapiens, UniProt P60568); experiment: Double ligand SPR on immobilized interleukin-2 (Examples 9-11); assay type: binding; settings: for Kd: Example 11, immobilized interleukin-2, read-out: apparent Kd in SPR experiments
T1 construct: made in house; host or cells: E. coli
Procedure: A CM5 sensor chip (Biacore-BR-1000-14) is docked in a Biacore 2000 SPR device and normalized using a standard Biacore protocol with 70% glycerol. The chip is next equilibrated in PBS for approximately 1 hr at a 20 μL/min flow rate. The dextran surface of the chip is activated through an NHS/EDC coupling. This coupling is done using an amine coupling kit (Biacore—BR-100-50) containing N-hydroxysuccinimide (NHS 11.5 mg/mL) and N-ethyl-N′-(3-dimethylaminopropyl) carbodiimide hydrochloride (EDC 75 mg/mL). First, the two reagents are mixed in a 1:1 ratio and then 35 μL of the mixture are injected at 5 μL/min. The chip is activated one flow cell at a time, and that flow cell is subsequently labeled with protein.
IL-2 is expressed in E. coli cells and purified using standard procedures. Protein is then concentrated to 100 μM and the buffer is exchanged to 100 mM MES pH 5.75 (Nap-5 column, Pierce). A sensorgram is then run over the activated flow cell at 2,L/min of PBS. The IL-2 solution is then injected at 2 μL/min for 10 min. After injection the change in RUs is measured by marking the RUs at t=0 and t=final and subtracting. This gives the total RU change, which is related to the total mass of protein successfully coupled to the CM5 surface. The total mass will later be used to determine stoichiometry of binding. This procedure is then repeated with another arbitrary protein to create a measure for nonspecific binding. The arbitrary protein is immobilized on an adjacent cell. […] The sensorgram is then altered to flow across all four cells on the CM5 chip at 5 μL/min PBS. A solution of 1 M ethanolamine hydrochloride-NaOH pH 8.5 (Amine coupling kit, Biacore-BR-100-50) is injected at 5 μL/min for 7 min. Proteins are immobilized at densities of 100-160 fmol/mm^2. The chip is equilibrated overnight in PBS+0.05% azide+2% DMSO at 20 μL/min.
In this experiment, variable concentrations of a compound are tested at a constant concentration of another compound. The compound held constant is 2c, for example (structure shown in Example 2). To determine appropriate constant concentrations for 2c, a compound titration is first performed. Dilution series of the compounds are typically performed to produce seven solutions having final compound concentrations of 30 mM, 10 mM, 3.3 mM, 1.1 mM, 0.37 mM, 0.12 mM, and 0.041 mM; an eighth solution is a DMSO-only baseline. The compounds are then diluted into PBS+0.05% azide to final concentrations of 300 μM, 100 μM, 33 μM, 11 μM, 3.7 μM, 1.2 μM, 0.41 μM. The compound solutions are injected from lowest concentration to highest at 40 μL/min for 1 min. The SPR software method includes a 1 min wash before injection, the injection and then a 3 min wash after the injection.
These dilution series are analyzed by BIAevaluation software version 3.0. Sensorgrams are plotted for compound binding to the IL-2 labeled cell of the chip. The sensorgrams are modified by subtracting the sensorgrams for the appropriate compound dilutions over cell 1 (a blank cell). This subtraction step removes any RU changes that might occur due to non-specific interactions between the compound and the chip itself or refractive changes in the buffer. Finally, the eight sensorgrams produced from the compound dilution series are zeroed at the average of their starting RUs. Then the sensorgram produced by injecting DMSO only is subtracted to reveal the final sensorgrams used to determine relative binding.
To determine KdSPR for the compound, the compound concentration is plotted on the X-axis, while the fraction bound at the plateau of the injection is plotted on the Y-axis. The curve is then analyzed via non-linear regression analysis (Kaleidagraph, Synergy Software). […] The concentration chosen is where the RUs remain constant at the top of the binding curve and thus the IL-2:2c ratio is 1. For 2c, this concentration is 100 μM.
A second compound is then run, this time in both the presence and absence of 2c. […]

wild type human IL-2 = wild type human IL-2 (Homo sapiens, UniProt P60568); experiment: SPR binding of compounds to immobilized wild type IL-2 (Examples 1-2); settings: for IL-2 wt Kd: immobilized wild type human IL-2
Y31C-IL-2-SS -3 = biological target: T2, Y31C-IL-2-SS -3 (Homo sapiens, UniProt P60568, Y51C); experiment: SPR binding of compound to immobilized IL-2-SS-ligand complex (Examples 1-2); settings: immobilized substrate-SS-ligand complex Y31C-IL-2-SS -3
T2 construct: made in house; host or cells: E. coli
Procedure: (§1) A CM5 sensor chip (Biacore-BR-1000-14) is docked in a Biacore 2000 SPR device, and the chip is then normalized using a standard Biacore protocol with 70% glycerol. The chip is next equilibrated in PBS for approximately 1 hr at a 20 μL/min flow rate. The dextran surface of the chip is activated through an NHS/EDC coupling. This activation is done using an amine coupling kit (Biacore—BR-100-50) containing N-hydroxysuccinimide (NHS 11.5 mg/mL) and N-ethyl-N′-(3-dimethylaminopropyl) carbodiimide hydrochloride (EDC 75 mg/mL). The two reagents are first mixed in a 1:1 ratio and then 35 μL of the mixture are injected at […]. The chip is activated one flow cell at a time, and that flow cell is subsequently labeled with protein.
(§2) IL-2 cysteine mutants are expressed in E. coli cells and purified using standard procedures. The cysteine mutants are treated with 10 mM βME overnight to reduce the surface cysteine. The βME is removed and the protein-thiolate is placed in 100 mM HEPES buffer pH 7.4 (Nap-5 column, Pierce). […]
(§3) The protein-SS—ligand complex is next concentrated to 100 μM using a Millipore-UFV5BCCOO 5K NMWL membrane, 0.5 mL centrifugal filter and tube. […] After injection the change in RUs is measured by marking the RUs at t=0 and t=final and subtracting. […]
(§4) The dilution series are analyzed by BIAevaluation software version 3.0. […]

Y31C-IL-2-SS -4 = biological target: T3, Y31C-IL-2-SS -4 (Homo sapiens, UniProt P60568, Y51C); experiment: as above; settings: immobilized substrate-SS-ligand complex Y31C-IL-2-SS -4
T3 construct: made in house; host or cells: E. coli
Procedure: as §1, §2, §3, §4

K43C-IL-2-SS -2 = biological target: T4, K43C-IL-2-SS -2 (Homo sapiens, UniProt P60568, K63C); experiment: SPR binding of compounds to immobilized IL-2-SS-ligand complex (Examples 1-2); settings: immobilized substrate-SS-ligand complex K43C-IL-2-SS -2
T4 construct: made in house; host or cells: E. coli
Procedure: as §1, §2, §3, §4

T1 sequence (P60568 21-153): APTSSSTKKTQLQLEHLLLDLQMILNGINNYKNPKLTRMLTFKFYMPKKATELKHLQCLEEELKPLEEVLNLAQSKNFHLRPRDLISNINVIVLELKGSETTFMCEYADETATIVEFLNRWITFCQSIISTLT
wild type human IL-2, sequence (P60568 21-153): as above
T4 sequence (P60568 21-153 K63C): as the sequence (P60568 21-153) above, with K43C counted along it
T3 sequence (P60568 21-153 Y51C): as the sequence (P60568 21-153) above, with Y31C counted along it
T2 sequence (P60568 21-153 Y51C): as the sequence (P60568 21-153) above, with Y31C counted along it

In the case of COC(=O)[C@H](Cc1ccc(C=Cc2ccccc2)cc1)NC(=O)C[C@H]1CCCN(C(=N)N)C1 [Compound 2c], the Kd (immobilized IL-2) is reported as 10 µM, the Kd (wild type human IL-2; immobilized wild type human IL-2, read-out: IL-2 wt Kd) is reported as 33 µM and the Kd (Y31C-IL-2-SS -3) is reported as 8 µM. It also gave a Kd (Y31C-IL-2-SS -4) of 30 µM.
With COCC(=O)N1CCc2c([nH]c3ccccc23)C1 [Compound 3c] the Kd (immobilized IL-2) was greater than 500 µM, the “IL-2 wt Kd” value (wild type human IL-2) was “Inactive” and the Kd (K43C-IL-2-SS -2) was 250 µM.
For COCN(C)C(=O)c1ccc(C(C)C)cc1 [Compound 4c], the “Kd,SPR IL-2” value (immobilized IL-2; immobilized IL-2, no other compound) was “Inactive”, the “IL-2 wt Kd” value (wild type human IL-2) was “Inactive” and the Kd (K43C-IL-2-SS -2) was 210 µM.

Reference: patent US20030186464A1, “Surface plasmon resonance methods” (priority 2002, published 2003)
